Structures can show the parent of a compound that is named as a salt. Where two headings read alike, the source gives them in different places. Starred links: 1 amine or outer side, 2 acyl side, 3 side chain; linkers in the order of their positions; H or OH if unused. Non-standard residues stand in square brackets, D forms with d. Residues, ends and D or L forms follow the SMILES beside them. Argψ(COCH2)Gly = N=C(N)NCCC[C@H](N[*:1])C(=O)CCC(=O)[*:2]; X1 = N=C(N)NCCC[C@H](N[*:1])C(=O)CCCCC(=O)[*:2]; Cha = N[C@@H](CC1CCCCC1)C(=O)O; dCha = N[C@H](CC1CCCCC1)C(=O)O; Ava = NCCCCC(=O)O
Assays:
[1] = biological target: human α-thrombin (Homo sapiens, UniProt P00734); assay: Fluorogenic amidolytic assay of thrombin activity, hydrolysis of Tosyl-Gly-Pro-Arg-AMC (Table I)
[2] = biological target: T1, thrombin (Homo sapiens, UniProt P00734); assay: Antithrombin activity in vitro, Ki (Table III); assay type: biochemical; details: first test where two are given; means for 3-5 observations
Description: The reactions were initiated by addition of the substrate dissolved in 0.1 M Tris-HCl buffer, pH 7.8 to a preincubated solution of enzyme (0.4 or 0.04 nM) and variable concentrations of inhibitor dissolved in the same buffer. Initial velocities were recorded and Ki values were determined graphically by weighted linear regression of Dixon plots in the case of competitive inhibition, or by the method of Baici (Baici, 1981) for hyperbolic inhibition. Fluorogenic assays were conducted using the same conditions and instrument as above operating in the fluorescence mode in the Ratio (λex=383 nm, λem=455 nm). Fluorescence intensities were calibrated with 7-amino-4-methyl coumarin solution of known concentration. The specificity of the synthetic peptides of the present invention for human α-thrombin may also be determined by comparing their relative inhibitory activities towards both human α-thrombin and bovine α-thrombin and trypsin by comparing Ki values obtained in the amidolytic assay of thrombin activity.

[3] = biological target: T1, thrombin; assay: Thrombin time in buffer containing fibrinogen (dTT); assay type: biochemical; details: read-out: IC50 dTT (concentration required to double thrombin time)
From the text: *Concentration of compound required to double thrombin time in buffer

[4] = system: human plasma clotting; assay: Human plasma clotting time; assay type: biochemical; details: read-out: IC50 plasma clotting time (concentration required to inhibit human plasma clotting time by 50%)
Description: Thus, for the determination of prothrombin time, 50 μl of reconstituted citrated normal human plasma (Sigma, St-Louis, Mo.) is mixed with 50 μl of thromboplastin solution at 37° C. in a 400 μl cuvette. […] The clotting time is recorded following recalcification with 100 μl of 25 mM CaCl2. The clotting time in the absence of inhibitor was between 19-22 sec.
The same procedure is adopted for the determination of activated partial thromboplastin time except that reconstituted plasma is activated for 3 minutes with cephalin (Sigma, St-Louis, Mo.).
**Concentration of compound required to inhibit human plasma clotting tim

[5] = system: activated partial thromboplastin time; assay: Increase in APTT, bolus plus infusion model; assay type: in vivo, rat; details: intravenous bolus followed by infusion
[6] = system: venous thrombosis in vena cava; assay: Venous thrombosis model (balloon catheter induced-injury and stasis in vena cava); assay type: in vivo, rat; details: rats
Description: Rats ranging in weight from 350 g-450 g were anaesthetized with urethane [50%] at 1500 mg/kg IP. The abdomen and neck were shaved and prepared for surgery.
An incision was made from the base of the sternum to approximately 10-20 mm up from the penile sheath. Another incision was made across the end of the incision (90 degree) to create a flap to be hemostat open. […] Two sutures were loosely looped around the vein(1) and the vein and artery(2), just posterior to the renal veins and arteries. All other branches coming off dorsally from the vena cava were ligated as well as any other veins which may branch of this vein (approximately 4-6 depending on rat). Two more sutures were looped around the vein(1) and artery and vein(2) at the bifurcation of the femoral vein and artery. The right jugular vein was isolated, for later injection of compound.
An incision in the upper interior leg was made and the femoral vein and artery were exposed. The femoral vein was isolated and two sutures were looped around it. One suture was ligated distally, and the other one was pulled tight (proximal) to stop blood flow through the vessel. A very small incision was made into the vein and a 2F fogarty catheter was inserted. The catheter was fed up the femoral vein to the upper sutures (near the renal veins). At this point, inject the compound via the isolated right jugular vein and wait 1 minute. At 1 minute inflate the fogarty catheter with enough saline to distend the vena cava, but still allowing the catheter to be pulled back down to the point of femoral bifurcation without bursting the vessel. This procedure was repeated 3 times. After the third passage, the catheter was removed and as quickly as possible, the femoral incision was ligated with the proximal suture and the suture which was looped around only the vena cava was ligated to stop return flow and allow thrombus growth and the timer was set for 30 minutes.
At this point, the intestines may be placed back in the body cavity, and moistened with saline if any drying has occurred, and skin kept closed with hemostat. […]

[7] = system: carotid artery thrombosis; assay: Ferric chloride injury-induced thrombosis model in carotid artery; details: rat carotid artery, FeCl3 injury
Description: Species: Rat, male, Sprague-Dawley.
Animals were laid on a heating pad which was maintained at 37° C. The carotid artery was approached through a midline cervical incision. Carefully blunt dissection was used to expose and isolate the vessel from the carotid sheath. […] The vessel temperature was monitored for 60 minutes after application of FeCl3. […] The site of the experiment was covered with aluminum foil in order to protect the FeCl3 from degradation by light.
All the samples were kept on ice and centrifuged as soon as possible at 2000 Rpm for 10 min., 4° C. The plasma was analyzed in duplicate for activated partial thromboplastin time on a haemostasis analyzer (STAGO ST4™).
From a group of four animals, two arteries were stored at -80° C. for further analysis. The others were observed under a light microscope at 40× (Leica™) for quantification of the occlusion (complete, partial, no occlusion).
In some studies, the animal was receiving the compound by i.v. infusion instead of a bolus. In this case, the jugulars and femoral veins were cannulated with Sylastic tubing (I.D. 0.025IN). This left jugular was used for blood sampling and the right one for the infusion line. The compound was infused 30 minutes before injury and then for an other 30 minutes post-injury. Blood samples were taken at time 0, 30 and 60 minutes for APTT test and thrombin test (1 ml of blood/90 ul of citrated buffer).

Compound | Ki [2] | IC50 [3] | other results
CC[C@H](C)[C@H](NC(=O)[C@H](CCC(=O)O)NC(=O)[C@H](CCC(=O)O)NC(=O)[C@H](Cc1ccccc1)NC(=O)[C@H](CC(=O)O)NC(=O)CNC(=O)[C@H](CC(=O)O)NC(=O)[C@H](CC(N)=O)NC(=O)[C@H](Cc1c[nH]cn1)NC(=O)[C@H](CO)NC(=O)[C@H](CCC(N)=O)NC(=O)CCCCC(=O)[C@H](CCCNC(=N)N)NC(=O)[C@@H]1CCCN1C(=O)[C@@H](Cc1ccccc1)NC(C)=O)C(=O)N1CCC[C@H]1C(=O)N[C@@H](CCC(=O)O)C(=O)N[C@@H](CCC(=O)O)C(=O)N[C@@H](Cc1ccc(O)cc1)C(=O)N[C@@H](CC(C)C)C(=O)N[C@@H](CCC(N)=O)C(=O)O [P103] |  |  | Ki [1]: 0.14 ± 0.02 nM
CC[C@H](C)[C@H](NC(=O)[C@@H]1CCCN1C(=O)[C@H](CCC(=O)O)NC(=O)[C@H](Cc1ccccc1)NC(=O)[C@H](CC(=O)O)NC(=O)CCCCNC(=O)CCCCNC(=O)CCCCC(=O)[C@H](CCCNC(=N)N)NC(=O)[C@@H]1CCCN1C(=O)[C@H](N)Cc1ccccc1)C(=O)N1CCC[C@H]1C(=O)N[C@@H](CC(C)C)C(=O)O [BCH-2763, (D-Phe)-Pro-Arg-(CH2)4 (CO)--[NH(CH2)4 CO]2 -DFEPIPL-TFA salt] (H-[dF]P[X1][Ava][Ava]DFEPIPL-OH) | 0.1 nM | 1.3 nM | 
Ac(D-Phe)-Pro-Arg-(CH2)4 (CO)-[NH--CH2 --CH=CH--CH2 --(CO)]2 -DEFPIPY-OH ({Ac-dF-Pro-Arg-(CH2)4CO-NHCH2CH:CHCH2CO-NHCH2CH:CHCH2CO}-DEFPIPY-OH; also: Arg carbonyl bonded to (CH2)4 (non-amide backbone link)) [BCH-2414] | 1 nM | 6.23 nM | IC50 [4]: 10.5 nM
CC[C@H](C)[C@H](NC(=O)[C@@H]1CCCN1C(=O)[C@H](CCC(=O)O)NC(=O)[C@H](Cc1ccccc1)NC(=O)[C@H](CC(=O)O)NC(=O)CCCCNC(=O)CCCCNC(=O)CCCCC(=O)[C@H](CCCNC(=N)N)NC(=O)[C@@H]1CCCN1C(=O)[C@@H](Cc1ccccc1)NC(C)=O)C(=O)N1CCC[C@H]1C(=O)N[C@@H](CC(C)C)C(=O)O [BCH-2739, Ac(D-Phe)-Pro-Arg-(CH2)4 (CO)--[NH(CH2)4 (CO)]2 -DFEPIPL-OH] (Ac-[dF]P[X1][Ava][Ava]DFEPIPL-OH) | 4 nM | 14.5 nM | 
Ac(D-Phe)-thioPro-Arg-(CH2)2 (CO)-QSHNDGDFEEIPEEYLQ-OH [P290] | 0.9 nM |  | IC50 [4]: 11 nM
heparin [reference compound] |  |  | Bolus needed to achieve the same increase in APTT [5]: 25 U; Infusion needed to achieve the same increase in APTT [5]: 0.5 U/kg/min; Dose needed to achieve patency [6]: 10-15 U; Dose needed to cause a doubling in patency time [7]: 200 U/kg
CC[C@H](C)[C@H](NC(=O)[C@@H]1CCCN1C(=O)[C@H](CCC(=O)O)NC(=O)[C@H](Cc1ccccc1)NC(=O)[C@H](CC(=O)O)NC(=O)CNC(=O)[C@H](CC(=O)O)NC(=O)[C@H](CC(N)=O)NC(=O)[C@H](Cc1c[nH]cn1)NC(=O)[C@H](CO)NC(=O)[C@H](CCC(N)=O)NC(=O)CCC(=O)[C@H](CCCNC(=N)N)NC(=O)[C@@H]1CCCN1C(=O)[C@@H](CC1CCCCC1)NC(C)=O)C(=O)N1CCC[C@H]1C(=O)N[C@@H](CCC(=O)O)C(=O)N[C@@H](CCC(=O)O)C(=O)N[C@@H](Cc1ccc(O)cc1)C(=O)N[C@@H](CC1CCCCC1)C(=O)N[C@@H](CCC(N)=O)C(=O)O [P314] (Ac-[dCha]P[Argψ(COCH2)Gly]QSHNDGDFEPIPEEY[Cha]Q-OH) | 0.02 nM | 1.3 nM | 
CC[C@H](C)[C@H](NC(=O)[C@H](CCC(=O)O)NC(=O)[C@H](CCC(=O)O)NC(=O)[C@H](Cc1ccccc1)NC(=O)[C@H](CC(=O)O)NC(=O)CNC(=O)[C@H](CC(=O)O)NC(=O)[C@H](CC(N)=O)NC(=O)[C@H](Cc1c[nH]cn1)NC(=O)[C@H](CO)NC(=O)CNC(=O)CC(=O)[C@H](CCCNC(=N)N)NC(=O)[C@@H]1CCCN1C(=O)[C@@H](Cc1ccccc1)NC(C)=O)C(=O)N1CCC[C@H]1C(=O)N[C@@H](CCC(=O)O)C(=O)N[C@@H](CCC(=O)O)C(=O)N[C@@H](Cc1ccc(O)cc1)C(=O)N[C@@H](CC(C)C)C(=O)N[C@@H](CCC(N)=O)C(=O)O [P109] | 2.25 nM |  | 
CC[C@H](C)[C@H](NC(=O)[C@H](CCC(=O)O)NC(=O)[C@H](CCC(=O)O)NC(=O)[C@H](Cc1ccccc1)NC(=O)[C@H](CC(=O)O)NC(=O)CNC(=O)[C@H](CC(=O)O)NC(=O)[C@H](CC(N)=O)NC(=O)[C@H](Cc1c[nH]cn1)NC(=O)[C@H](CO)NC(=O)[C@H](CCC(N)=O)NC(=O)CCC(=O)[C@H](CCCNC(=N)N)NC(=O)[C@@H]1CCCN1C(=O)[C@@H](CC1CCCCC1)NC(C)=O)C(=O)N1CCC[C@H]1C(=O)N[C@@H](CCC(=O)O)C(=O)N[C@@H](CCC(=O)O)C(=O)N[C@@H](Cc1ccc(O)cc1)C(=O)N[C@@H](CC(C)C)C(=O)N[C@@H](CCC(N)=O)C(=O)O [P311] | 0.16 nM | 1.35 nM | 
[D-Phe^45, Ala^47 ]hirudin^45-65 [P73] |  |  | Ki ([1]; read-out: Human Ki, human α-thrombin mediated hydrolysis of Tosyl-Gly-Pro-Arg-AMC, mean of three determinations ± SEM, ni = not inhibited): 41 ± 15 nM
CC[C@H](C)[C@H](NC(=O)[C@@H]1CCCN1C(=O)[C@H](CCC(=O)O)NC(=O)[C@H](Cc1ccccc1)NC(=O)[C@H](CC(=O)O)NC(=O)CNC(=O)[C@H](CC(=O)O)NC(=O)[C@H](CC(N)=O)NC(=O)[C@H](Cc1c[nH]cn1)NC(=O)[C@H](CO)NC(=O)[C@H](CCC(N)=O)NC(=O)CCC(=O)[C@H](CCCNC(=N)N)NC(=O)[C@@H]1CCCN1C(=O)[C@@H](Cc1ccccc1)NC(C)=O)C(=O)N1CCC[C@H]1C(=O)N[C@@H](CCC(=O)O)C(=O)N[C@@H](CCC(=O)O)C(=O)N[C@@H](Cc1ccc(O)cc1)C(=O)N[C@@H](CC1CCCCC1)C(=O)N[C@@H](CCC(N)=O)C(=O)O [BCH-2408] (Ac-[dF]P[Argψ(COCH2)Gly]QSHNDGDFEPIPEEY[Cha]Q-OH) | 0.075 nM | 1 nM | 
CC[C@H](C)[C@H](NC(=O)[C@@H]1CCCN1C(=O)[C@H](CCC(=O)O)NC(=O)[C@H](Cc1ccccc1)NC(=O)CCCCNC(=O)CCCCNC(=O)CCCCC(=O)[C@H](CCCNC(=N)N)NC(=O)[C@@H]1CCCN1C(=O)[C@H](N)Cc1ccccc1)C(=O)N1CCC[C@H]1C(=O)N[C@@H](CC(C)C)C(=O)O [BCH-2767, (D-Phe)-Pro-Arg-(CH2)4 (CO)--[NH(CH2)4 CO]2 -FEPIPL-TFA salt] (H-[dF]P[X1][Ava][Ava]FEPIPL-OH) | 40 nM | 165 nM | 
Hirulog: comparator thrombin inhibitor, BCH number 1724 |  |  | Minimum Bolus dose needed to achieve patency ([6]; i.v. bolus): 0.05 to 0.125 mg/kg
CC[C@H](C)[C@H](NC(=O)[C@H](CCC(=O)O)NC(=O)[C@H](CCC(=O)O)NC(=O)[C@H](Cc1ccccc1)NC(=O)[C@H](CC(=O)O)NC(=O)CNC(=O)[C@H](CC(=O)O)NC(=O)[C@H](CC(N)=O)NC(=O)[C@H](Cc1c[nH]cn1)NC(=O)[C@H](CO)NC(=O)[C@H](CCC(N)=O)NC(=O)CCCC(=O)[C@H](CCCNC(=N)N)NC(=O)[C@@H]1CCCN1C(=O)[C@@H](Cc1ccccc1)NC(C)=O)C(=O)N1CCC[C@H]1C(=O)N[C@@H](CCC(=O)O)C(=O)N[C@@H](CCC(=O)O)C(=O)N[C@@H](Cc1ccc(O)cc1)C(=O)N[C@@H](CC(C)C)C(=O)N[C@@H](CCC(N)=O)C(=O)O [P102] |  |  | Ki [1]: 0.56 nM

Reference: patent US6060451A, “Thrombin inhibitors based on the amino acid sequence of hirudin” (The National Research Council of Canada, priority 1995, dated 2000)
